The values that follow come from publication PMC5829251, “NAD^+ analog reveals PARP-1 substrate-blocking mechanism and allosteric communication from catalytic center to DNA-binding domains” (Nature Communications, 2018).

Test [1] concerns the target T1, full-length PARP-1 (Homo sapiens, UniProt P09874).
T1 construct: Full-length PARP-1 WT (residues 1–1014) was cloned in pET28 vector; made in house; host or cells: E. coli
Description: Colorimetric assay of full-length PARP-1 DNA-dependent activity. The class given is biochemical. To be noted: 20 nM PARP-1, 40 nM DNA, 50 μM NAD+. The method, then: The colorimetric assay was performed as described, [28] using 20 nM of protein and 40 nM DNA (18-bp duplex). A mixture of NAD^+ and biotinylated NAD^+ (bio-NAD^+) was used at a 99:1 ratio and a final concentration of 50 µM. Reactions were allowed to proceed for 5 min before quenching. Three independent experiments were performed.

The target of test [2] is T2, PARP-1 CAT domain WT (Homo sapiens, UniProt P09874).
T2 construct: The PARP-1 CAT WT (residues 661–1014) was cloned in pET28 vector; made in house; host or cells: E. coli
Description: Differential scanning fluorimetry (DSF), PARP-1 CAT WT. Format: binding. The conditions noted are these: for TM: Figure 1e, CAT WT 5 μM, TM without compound 51.58, in °C (unit assumed). The method, then:
(§1) DSF experiments were performed as described, [13] using 5 µM protein, 2.5 µM DNA when indicated and various concentrations of compound (BAD, carba-NAD^+, benzamide, and ADP-ribose) as indicated in Fig. 1 and Fig. 3. Experiments were performed on a Roche LightCycler 480 RT-PCR. Reactions including DNA were performed with a 26- or 28-base pair (bp) unphosphorylated oligonucleotide for PARP-1, a 28-bp 5´-phosphorylated (5´P) oligonucleotide for PARP-2, and a 47-bp oligonucleotide including a central 5´P nick for PARP-3^13 in the following buffer: 25 mM Hepes pH 8.0, 150 mM NaCl, 1 mM EDTA, and 0.1 mM TCEP. Reactions with PARP-3 were conducted at lower ionic strength to allow binding to DNA as described (25 mM Hepes pH 8.0, 50 mM NaCl, 1 mM EDTA and 0.1 mM TCEP)[13]. ΔTM values were calculated by subtracting the TM determined for the protein in the absence of compound from the TM determined in the presence of compound. Experiments were performed in triplicate and a Boltzmann sigmoid was fit to the data to determine the TM values (KaleidaGraph).
For orientation: Differential scanning fluorimetry follows unfolding on heating by fluorescence.

Test [3] deals with T3, PARP-1 CAT ΔHD (Homo sapiens, UniProt P09874).
T3 construct: a pET28 construct coding for PARP-1 residues 661-1011; made in house; host or cells: E. coli
Description: DSF, PARP-1 CAT ΔHD. Format: binding. The conditions noted are these: for TM: Figure 1e, CAT ΔHD 5 μM, TM without compound 41.26, in °C (unit assumed). The method, then:
as §1

The mark [4] stands for this setting: 5 μM protein, various amounts of compound.

T2 sequence (P09874 661-1014): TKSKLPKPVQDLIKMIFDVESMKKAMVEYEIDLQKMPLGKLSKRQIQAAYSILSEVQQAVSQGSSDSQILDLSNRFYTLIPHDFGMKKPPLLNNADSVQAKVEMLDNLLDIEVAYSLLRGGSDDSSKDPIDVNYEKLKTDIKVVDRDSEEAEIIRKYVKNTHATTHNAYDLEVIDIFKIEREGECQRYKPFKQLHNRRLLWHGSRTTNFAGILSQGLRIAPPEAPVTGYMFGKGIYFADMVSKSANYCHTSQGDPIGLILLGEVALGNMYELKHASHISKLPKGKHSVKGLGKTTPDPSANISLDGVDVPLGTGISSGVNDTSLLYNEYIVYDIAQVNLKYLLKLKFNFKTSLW
T3 sequence (P09874 with tags, fused parts or gaps): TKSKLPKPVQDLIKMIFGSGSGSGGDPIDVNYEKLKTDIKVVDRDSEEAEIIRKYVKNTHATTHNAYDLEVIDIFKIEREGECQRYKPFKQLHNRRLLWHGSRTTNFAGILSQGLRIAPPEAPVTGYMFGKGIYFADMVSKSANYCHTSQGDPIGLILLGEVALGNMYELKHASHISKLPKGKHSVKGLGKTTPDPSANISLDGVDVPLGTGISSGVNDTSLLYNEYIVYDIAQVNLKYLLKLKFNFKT
T1 sequence (P09874 whole entry, the tested form may be a part): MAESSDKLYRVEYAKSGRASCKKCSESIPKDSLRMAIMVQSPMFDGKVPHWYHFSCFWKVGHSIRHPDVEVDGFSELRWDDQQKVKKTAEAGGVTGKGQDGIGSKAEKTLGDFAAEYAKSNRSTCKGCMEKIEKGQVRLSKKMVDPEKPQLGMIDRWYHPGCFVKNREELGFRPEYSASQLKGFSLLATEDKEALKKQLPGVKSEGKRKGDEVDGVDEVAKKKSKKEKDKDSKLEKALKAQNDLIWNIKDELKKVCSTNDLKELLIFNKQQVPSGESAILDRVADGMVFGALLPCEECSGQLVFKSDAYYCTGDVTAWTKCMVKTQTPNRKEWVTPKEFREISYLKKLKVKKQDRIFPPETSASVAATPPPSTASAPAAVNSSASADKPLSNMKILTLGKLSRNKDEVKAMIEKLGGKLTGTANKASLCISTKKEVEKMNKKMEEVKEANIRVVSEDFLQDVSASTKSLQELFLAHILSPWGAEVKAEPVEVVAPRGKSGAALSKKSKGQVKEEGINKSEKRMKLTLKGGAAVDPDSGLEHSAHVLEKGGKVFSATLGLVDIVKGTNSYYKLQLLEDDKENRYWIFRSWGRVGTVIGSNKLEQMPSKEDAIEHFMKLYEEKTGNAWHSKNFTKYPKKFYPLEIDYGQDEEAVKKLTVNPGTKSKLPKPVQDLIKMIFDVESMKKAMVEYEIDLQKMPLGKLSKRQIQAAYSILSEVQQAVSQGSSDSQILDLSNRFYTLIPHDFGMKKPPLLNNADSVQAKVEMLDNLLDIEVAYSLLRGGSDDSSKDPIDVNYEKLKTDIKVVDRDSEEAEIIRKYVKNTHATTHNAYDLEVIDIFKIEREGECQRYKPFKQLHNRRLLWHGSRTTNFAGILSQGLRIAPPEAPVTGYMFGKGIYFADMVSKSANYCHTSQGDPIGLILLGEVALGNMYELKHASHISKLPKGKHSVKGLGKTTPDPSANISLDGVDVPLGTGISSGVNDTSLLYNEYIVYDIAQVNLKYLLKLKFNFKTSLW

For `Nc1ncnc2c1ncn2C1OC(COP(=O)(O)OP(=O)(O)OCC2OC(O)C(O)C2O)C(O)C1O` (centres unmarked) [ADP-ribose], the “inhibition of DNA damage-dependent activity of full-length PARP-1” value in test [1] is on record as “does not inhibit the reaction”. In addition, the “change of apparent TM of PARP-1 CAT WT (evidence of binding)” value in test [2] (setting [4]) was “no evidence of binding”. Besides, the TM in test [2] (compound 25 µM) amounted to 51.52; in test [2] (compound 150 µM) it was 51.61; in test [2] (compound 750 µM), 51.56; in test [2] (compound 1500 µM) it was 51.53; in test [3] (compound 25 µM), 41.46; in test [3] (compound 150 µM), 41.57. Also, the TM is 41.43 in test [3] (compound 750 µM) and 41.68 in test [3] (compound 1500 µM). Moreover, in test [3] (setting [4]), the “change of TM of CAT ΔHD (evidence of binding)” value was “no evidence of binding”.
